In patent US11318141B2, “Methods and compositions related to STK1-targeted small molecules as antibiotic resistance breakers” (Ohio State Innovation Foundation, priority 2017, dated 2022):
Converted amounts (≈) assume the structure as drawn. “And” between values parts separate entries of the source, which are not always exact repeats. Equal entries are not always repeated. Where two headings read alike, the source gives them in different places.

Assays:
[1] = test system: S. aureus MW2 wild-type; assay: Checkerboard titration end-point bactericidal assay (MBC), Muller-Hinton agar; assay type: cell-based, Staphylococcus aureus; conditions: for MBC: Staphylococcus aureus, MW2WILDTYPE
Description: FIGS. 15A-15B show checkerboard assays for determining bactericidal assay. Serial two-fold dilutions of 2 mM of Inh2-B1 (MW=411.58 g/mol) and (A) 3 mM ceftriaxone (MW=669.7 g/mol) were made in two separate 96-well plates in vertical (B1-B12 to H1-H2 wells) and horizontal (A2-H2 to A12-H12 wells) directions respectively. Serially diluted Inh2-B1 (100 μL) in the individual well was then mixed with the 100 μL serially diluted ceftriaxone present in the corresponding wells. The resulting various combinations of Inh2-B1 (starting from 1 mM) and ceftriaxone (starting from 1.5 mM) or cefotaxime (2.1 mM) as well as serially diluted one Inh2-B1 (B1 to H1) and ceftriaxone (A2-A12) or cefotaxime (A2-A12) were then incorporated in Muller-Hinton mini agar plates (2 mL). The agar plates were then seeded and diluted S. aureus MW2-wild-type culture equivalent to approximately 23±3 CFU. This checkerboard assay was used to determine the ideal combination of lowest concentration of Inh2-B1 and ceftriaxone that kills 99.9% of the wild-type MW2.
Since the STK1 is not essential for bacterial survival and its absence results in retardation of growth, an end-point bactericidal assay was done, employing the Checkerboard titration method followed by a time-to-kill assay using the broth dilution method. The 96-well plate-based checkerboard titration assays were performed using the fixed number of CFUs of MW2 strain, and the survival of the bacteria was measured on solid agar plates as an end-point result. […] The cut-off value to designate clinical isolates of S. aureus for antibiotics, including Ceftriaxone (TX) and Cefotaxime (CT) as susceptible, is less than 4 μg/ml (i.e., <4.8 μM of TX, and <7 μM of CT). […] CFU counts of MW2-WT grown in the presence of various concentrations of Inh2-B1 were examined over a period of 16 h. […] Similarly, it was also determined CFU counts of MW2-WT and MW2ΔSTK1 strains each grown in the absence or the presence of 50 μM of Inh2-B1 and 1.5 μM Ceftriaxone (1 μg/ml) or […] Cefotaxime (1 μg/ml) for 16 h employing the broth dilution method. […] Further, to address whether MW2 or STK1 could become refractory to a potential combined therapy, the S. aureus MW2 wild-type strain was grown in the presence of suboptimal dose of Inh2-B1 alone and combination with Ceftriaxone and Cefotaxime (25 μM Inh2-B1 and 3 μM of Ceftriaxone or 3 μM Cefotaxime) for consecutive 10 generations.
(§1) Subsequently, the susceptibility of S. aureus MW2 strain to Ceftriaxone, Cefotaxime, Inh2, and Inh2-B1 was confirmed by the CLSI recommended serial dilution method using Muller Hinton broth. Minimum bactericidal activity (MBC) was measured using Muller-Hinton agar. Changes in the MBC of Ceftriaxone/Cefotaxime in the presence of serially diluted Inh2-B1 was determined in two steps. Initial screening was carried out using the Checkerboard method using Muller-Hinton agar (FIG. 15). […] Subsequent time to kill assays were carried out using 50 μM Inh2-B1 and Ceftriaxone. Cefotaxime (1 μg/ml) in a final volume of 250 μl using a sterile 96-well (U-bottom) microtiter plate over a period of 16 h at 37° C. under constant rotation (120 rpm). Optical density and corresponding CFU counts were measured at every two-hour interval up to 8 hours with a final overnight reading at the end of incubation period. CFU counts were measured using appropriate dilution of 10 μl of properly mixed samples at each time interval.

[2] = test system: S. aureus MW2-WT; assay: S. aureus mouse septicemia model, therapeutic study; assay type: in vivo, CD-1 mice; conditions: only Cefotaxime 10 mg/kg
Description: The virulence potential of the wild-type S. aureus MW2 wild-type and corresponding MW2ΔSTK1 and MW2ΔSTP1 mutants was assessed using the mouse-septicemia model. CD-1 mice (5 weeks old, 20-22 g. Charles River Laboratories, ten female mice/group and housed in a group of 5 mice/cage) were lightly anesthetized with isoflurane and injected retro-orbitally with the S. aureus MW2 or isogenic MW2Δstk1 mutant (4×10^8 CFU/0.1 ml of PBS). […] For therapeutic studies, the animals were first challenged with MW2-WT strain as described above and subsequently administered with antibiotic and/or small molecule compounds. The latter was started 4 h after the challenge and subsequently 12 h apart for 4 days post infection. Thus, Inh2-B1 (5 mg/kg body weight in 0.3 ml vehicle buffer), Ceftriaxone (10 and 25 mg/kg body weight in 0.3 ml vehicle buffer). Cefotaxime (10 mg/kg body weight), combination of Ceftriaxone (10 mg and 25 mg/kg body weight in 0.3 ml vehicle buffer) or Cefotaxime (10 mg/kg body weight) with Inh2-B1 (5 mg/kg body weight in 0.3 ml vehicle buffer), or 0.3 ml of vehicle-buffer (50 mM Tris/HCl, pH 8.8, 1.67% [v/v] DMSO). Early removal and euthanasia criteria were applied to all experimental mice showing penultimate sign(s) of the unrecoverable stage of illness, including ruffled skin with a hunch back, loss of more than 20% of body mass as compared to unchallenged mice receiving mock treatment, dyspnea, and labored gasping. All experiments were performed twice. Data were combined, and percentage survival in each group was statistically evaluated by the Log-Rank test (Kaplan-Meier) using the GraphPad Prism 6 software. P<0.05 was treated as a significant difference. On Day 3 P.I., 3-6 mice from different groups receiving treatment with a single antibiotic or combination therapy were euthanized and sacrificed, and kidneys were […] for determining the bacterial load, which was determined by counting the colony forming units in the homogenized tissue in sterile PBS buffer.

[3] = test system: S. aureus MW2-WT; assay: microbe, parasite or virus in culture; assay type: cell-based, Staphylococcus aureus; conditions: for MIC / susceptibility pattern for MW2 in the presence vs absence of Inh2-B1: E-test, 50 μM Inh2-B1
[4] = test system: S. aureus MW2-WT; assay: Time-to-kill assay (OD and CFU counts over 16 h), broth dilution; assay type: cell-based, Staphylococcus aureus; conditions: only 50 μM Inh2-B1, only 1.5 μM Ceftriaxone (1 μg/ml) or only 3 μM Cefotaxime (1 μg/ml), 16 h
Description: FIGS. 4A-F show. […] Optical Density and corresponding Colony forming units of (C and D) MW2-WT and (E and F) MW2ΔSTK1 cultures in the presence or absence 50 μM Inh2-B1, 1.51 μM (1 μg/ml) Ceftriaxone, 2.125 μM (1 μg/ml) Cefotaxime, and combination of Inh2-B1 plus Ceftriaxone, and Inh2-B1 plus Cefotaxime. The experiments were carried out as described in the Materials and Method section using Muller-Hinton broth and seeded with 4×10^6 CFUs of S. aureus MW2-Wild type or MW2ΔSTK1 strains per well. Each data points represent Mean±S.D. P values of significance (**=<0.01, ***=<0.001) were determined using the t-test with Welch's corrections. NS—Not significant.
as §1, with “interval. All experiments were performed in three biological replicates and the statistical analysis of the results obtained at each time point was carried out by the non-parametric t-test with Welch's correction using GraphPad Prism 6 software.” for “interval.”

[5] = test system: S. aureus MW2ΔSTP1 mutant; assay: E-test antibiotic susceptibility (MIC), Muller-Hinton agar; assay type: cell-based; conditions: Staphylococcus aureus
[6] = test system: S. aureus MW2ΔSTK1 mutant; assay: as above; assay type: cell-based; conditions: Staphylococcus aureus

| SMILES | MBC ([1]; agent alone, MW2, read-out: Minimum bactericidal concentration (MBC)) | MBC ([1]; in the presence of 50 μM of Inh2-B1, read-out: MBC for MW2 in the presence of Inh2-B1) | concentration up to which growth of MW2 was seen ([1]; agent alone, further analysis) [µM] | concentration of wells with ≥1 CFU of wild-type MW2 ([1]; checkerboard, agent alone) [µM] | fold reduction of MBC ([1]; in the presence of 50 μM of Inh2-B1 vs antibiotic alone) [fold] | time within which all challenged mice died [2] [h] | MIC ([3]; Staphylococcus aureus, MW2WT) [µg/mL] | growth pattern of the wild-type, single agent [4] | MIC [5] [µg/mL] | MIC [6] [µg/mL] | MIC / susceptibility pattern for MW2 in the presence vs absence of Inh2-B1 [3] |
| --- | --- | --- | --- | --- | --- | --- | --- | --- | --- | --- | --- |
| CO/N=C(\C(=O)N[C@@H]1C(=O)N2C(C(=O)O)=C(COC(C)=O)CS[C@H]12)c1csc(N)n1 [Cefotaxime] | 220 µM and 100 µg/mL | 27.5 µM and 12.5 µg/mL | 176 | ≤ 110 | 8 | 36 to 48 | > 100 | remained unaltered | > 100 | 4 (≈ 8.78 µM) |  |
| CC[C@H]1OC(=O)[C@H](C)[C@@H](O[C@H]2C[C@@](C)(OC)[C@@H](O)[C@H](C)O2)[C@H](C)[C@@H](O[C@@H]2O[C@H](C)C[C@H](N(C)C)[C@H]2O)[C@](C)(O)C[C@@H](C)C(=O)[C@H](C)[C@@H](O)[C@]1(C)O [Erythromycin] |  |  |  |  |  |  |  |  |  |  | remained unaltered |
| C[C@@H](O)[C@H]1C(=O)N2C(C(=O)O)=C(S[C@@H]3CN[C@H](C(=O)N(C)C)C3)[C@H](C)[C@H]12 [Meropenem] |  |  |  |  |  |  |  |  |  |  | remained unaltered |
